The results in this text go back to US12116424B2, “Compounds and compositions for modulating Listeria virulence” (priority 2021, dated 2024).

This test deals with L. monocytogenes AgrC (Listeria monocytogenes serovar 1/2a, UniProt Q8YAR5). Kind of test: Fluorescence (agr-GFP) reporter agonism assay, ΔagrD reporter strain. The format is cell-based. Also noted: Emax: dose or concentration left out as unconfirmed. The text has this: Construction of Listeria agr Reporter Strains. A gene block was designed and purchased from Integrated DNA Technologies to contain an EagI recognition site, the PII promoter of the agr system, the 3′ UTR of hly, super folder GFP, and a SaII recognition site. The gene block was digested with EagI and SaII, cloned into an EagI/SaII-cut pAM401 plasmid resulting in the plasmid pAM401-KW1, and then transformed into E. coli XL1-Blue competent cells. The insertion into pAM401 was confirmed using Kapa polymerase and primers DAP337 and DAP338, and additional confirmation via commercial sequencing. Purified plasmid was transformed into the conjugative E. coli S17 strain, which was used to conjugate to EGD-e and EGD-e ΔagrD to generate the agr-GFP reporter strains EGD-e:pAM401-KW1 and EGD-e ΔagrD:pAM401-KW1. Conjugation was verified using primers DAP337 and DAP338.
L. monocytogenes AgrC, sequence (Q8YAR5 entry or part of it): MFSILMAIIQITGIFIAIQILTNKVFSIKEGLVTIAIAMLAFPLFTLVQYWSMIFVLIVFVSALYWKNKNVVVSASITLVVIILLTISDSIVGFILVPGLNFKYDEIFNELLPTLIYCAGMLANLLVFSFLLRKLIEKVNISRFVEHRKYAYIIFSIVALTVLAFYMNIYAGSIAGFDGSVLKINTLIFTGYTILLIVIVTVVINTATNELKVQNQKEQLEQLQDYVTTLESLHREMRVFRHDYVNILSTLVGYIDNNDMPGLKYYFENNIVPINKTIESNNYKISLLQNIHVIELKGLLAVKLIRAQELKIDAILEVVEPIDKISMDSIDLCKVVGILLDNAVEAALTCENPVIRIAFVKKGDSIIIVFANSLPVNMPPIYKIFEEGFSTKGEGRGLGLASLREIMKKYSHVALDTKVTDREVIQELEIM
Fluorescence reporter assay protocol. For QS (agr) reporter assays, peptide stock solutions in DMSO (1 mM) were serially diluted in DMSO, and 2 μL of solution was added to each well in a black 96-well plate (polystyrene microtiter plate, Costar). Agonism assays utilized the ΔagrD reporter strain, with 2 μL of 100 μM AIP (final concentration 1 μM) as a positive control and 2 μL of DMSO as a negative control. Antagonism assays utilized the EGD-e reporter strain, with 2 μL of DMSO as a positive control. In both assays, wells containing only BHI media served as negative controls for normalization. An overnight culture of bacteria was diluted 1:50 in fresh BHI, then 198 μL were transferred to each well (excluding the media control wells). Plates were then incubated at 37° C. for 24 hours with shaking at 200 rpm. Fluorescence of GFP (excitation at 500 nm, emission at 540 nm) and OD600 of each well was measured using BioTek Synergy 2 plate reader. Measurements were processed by subtracting background fluorescence (BHI media), correcting by OD600, and the normalizing using the 1 μM AIP or the DMSO control for the agonism and antagonism assays, respectively. Non-linear regression curves were fitted to the data sets in GraphPad Prism 7 by using variable slope (four-parameter) dose-response analysis to obtain potency, efficacy, and statistical information about the activity of tested peptides. Each peptide was tested with three technical replicates and three biological replicates. All data derived from fluorescent reporter strains are represented with data points signifying the mean and error bars signifying the standard deviation from all replicates.
Preparation and Validation of Listeria agr Reporter Strains. In order to facilitate profiling the native AIP and its analogs for agr activity, L. monocytogenes agr GFP reporters were designed and constructed as described above (see Materials and General Methods). Briefly, a plasmid containing the agr promoter region upstream of gfp was transformed into wild-type (EGD-e) and ΔagrD L. monocytogenes strains. The wild-type reporter naturally produces its own AIP and is able to activate AgrC, which may subsequently phosphorylate AgrA for productive binding to DNA and triggering the production of GFP (FIG. 1A). The ΔagrD reporter, lacking the ability to produce its own AIP and thereby activate AgrC, is unable to trigger substantial production of GFP. However, adding exogenous AIP to the ΔagrD reporter results in an increase of fluorescence, indicating agr activity has been restored.

[1] abbreviates: read-out: Max Activation Observed.

Read-outs that look alike come from different tables or passages of the source. Where a SMILES comes first, the peptide text is derived from it. Bridges are numbered along the chain shown (N, C = ends). [ ]: non-standard residue; d: D form. dDap = NC[C@@H](N)C(=O)O

For the molecule `C[C@H](N)C(=O)N[C@@H](CO)C(=O)N[C@@H](C)C(=O)N[C@H]1CSC(=O)[C@H](Cc2ccccc2)NC(=O)[C@H](Cc2ccc(O)cc2)NC(=O)[C@H](C)NC(=O)[C@H](C)NC1=O` [Se AIP-I D1AV3AS6A, A-S-A-(C-A-A-Y-F), reference compound] (H-ASACAAYF; thioester 4-C), the Emax (read-out: Max Activation) amounted to 12.1%.

As to `CSCC[C@H]1NC(=O)[C@H](Cc2ccccc2)NC(=O)[C@@H](NC(=O)[C@@H](N)CCCCN)CSC(=O)[C@H](C(C)C)NC(=O)[C@H](Cc2ccccc2)NC1=O` [AIP A1K/M4dM, K-(C-F-dM-F-V)] (H-KCF[dM]FV; thioester 2-C; N-terminus assumed), under setting [1], the Emax was 74.1%.

With `CSCC[C@H](NC(=O)[C@H](CO)NC(=O)[C@H](CO)NC(=O)[C@@H](N)CC(=O)O)C(=O)N[C@@H](CO)C(=O)N[C@@H](CCCCN)C(=O)N[C@@H](C)C(=O)N[C@H]1CSC(=O)[C@H](C(C)C)NC(=O)[C@H](Cc2ccccc2)NC(=O)[C@H](CCSC)NC(=O)[C@H](Cc2ccccc2)NC1=O` [Compound 12-mer, D-S-S-M-S-K-A-(C-F-M-F-V)] (H-DSSMSKACFMFV; thioester 8-C; N-terminus assumed), the Emax (read-out: Max Activation) was found to be 116%.

Consider `CSCC[C@@H]1NC(=O)[C@H](Cc2ccccc2)NC(=O)[C@@H](NC(=O)[C@H](CCCCN)NC(=O)[C@@H](N)CCCCN)CSC(=O)[C@H](C(C)C)NC(=O)[C@H](Cc2ccccc2)NC1=O` [7-mer A2K, K-K-(C-F-M-F-V)] (H-KKCFMFV; thioester 3-C; N-terminus assumed), for which, under setting [1], the Emax stood at 64.8%.

Turning to `CSCC[C@@H]1NC(=O)[C@H](Cc2ccccc2)NC(=O)[C@@H](NC(=O)[C@H](C)NC(=O)[C@H](CCCCN)NC(=O)[C@H](CO)NC(=O)[C@@H](N)CCSC)CSC(=O)[C@H](C(C)C)NC(=O)[C@H](Cc2ccccc2)NC1=O` [Compound 9-mer, M-S-K-A-(C-F-M-F-V)] (H-MSKACFMFV; thioester 5-C; N-terminus assumed), the Emax (read-out: Max Activation) was 93.6%.

For `CSCC[C@@H]1NC(=O)[C@H](Cc2ccccc2)NC(=O)[C@@H](NC(=O)[C@H](C)NC(=O)[C@H](CCCCN)NC(=O)[C@H](CO)NC(=O)[C@H](CCSC)NC(=O)[C@@H](N)CO)CSC(=O)[C@H](C(C)C)NC(=O)[C@H](Cc2ccccc2)NC1=O` [Compound 10-mer, S-M-S-K-A-(C-F-M-F-V)] (H-SMSKACFMFV; thioester 6-C; N-terminus assumed), the Emax (read-out: Max Activation) turned out to be 110%.

In the case of `CSCC[C@@H]1NC(=O)[C@H](Cc2ccccc2)NC(=O)[C@@H](NC(=O)[C@@H](C)N)CSC(=O)[C@H](C(C)C)NC(=O)[C@H](Cc2ccccc2)NC1=O` [AIP A1dA, dA-(C-F-M-F-V)] (H-[dA]CFMFV; thioester 2-C; N-terminus assumed), the Emax under setting [1] was found to be 58.8%.

On to `CSCC[C@@H]1NC(=O)[C@H](Cc2ccccc2)NC(=O)[C@@H](NC(=O)[C@H](C)NC(=O)[C@@H](N)CCCCN)CSC(=O)[C@H](C(C)C)NC(=O)[C@H](Cc2ccccc2)NC1=O` [Compound 7-mer, K-A-(C-F-M-F-V)] (H-KACFMFV; thioester 3-C; N-terminus assumed), for which, for the setting “read-out: Max Activation”, the Emax came out at 64.6%.

Turning to `CC(C)[C@@H]1NC(=O)[C@H](Cc2ccccc2)NC(=O)[C@@H](C)NC(=O)[C@H](Cc2ccccc2)NC(=O)[C@@H](NC(=O)[C@H](C)N)CSC1=O` [AIP M4dA, A-(C-F-dA-F-V)] (H-ACF[dA]FV; thioester 2-C; N-terminus assumed), the improved potency entry (agonism, relative to AIP M4A) is reported as “about four-fold”. For the same molecule, the Emax under setting [1] was 82%.

As for `CSCC[C@@H]1NC(=O)[C@H](Cc2ccccc2)NC(=O)[C@H](NC(=O)[C@H](C)N)CNC(=O)[C@H](C(C)C)NC(=O)[C@H](Cc2ccccc2)NC1=O` [AIP C2dDap, A-(Dap-F-M-F-V)] (H-A[dDap]FMFV; lactam 2-C; N-terminus assumed), the Emax under setting [1] came to 14.3%. Besides, for the setting “ΔagrD reporter”, the “agonism activity (in words)” value is recorded as “little or no agr activation”.

In the case of `CSCC[C@@H]1NC(=O)[C@H](Cc2ccccc2)NC(=O)[C@@H](NC(=O)[C@H](C)N)CSC(=O)[C@@H](C(C)C)NC(=O)[C@H](Cc2ccccc2)NC1=O` [AIP V6dV, A-(C-F-M-F-dV)] (H-ACFMF[dV]; thioester 2-C; N-terminus assumed), the Emax under setting [1] turned out to be 72.9%.

Regarding `CSCC[C@H](NC(=O)[C@H](CO)NC(=O)[C@H](CO)NC(=O)[C@H](CC(=O)O)NC(=O)[C@H](C)NC(=O)[C@@H](N)C(C)C)C(=O)N[C@@H](CO)C(=O)N[C@@H](CCCCN)C(=O)N[C@@H](C)C(=O)N[C@H]1CSC(=O)[C@H](C(C)C)NC(=O)[C@H](Cc2ccccc2)NC(=O)[C@H](CCSC)NC(=O)[C@H](Cc2ccccc2)NC1=O` [Compound 14-mcr, V-A-D-S-S-M-S-K-A-(C-F-M-F-V)] (H-VADSSMSKACFMFV; thioester 10-C; N-terminus assumed), under “read-out: Max Activation”, the Emax stood at 105%.

On to `CC(C)C[C@@H]1NC(=O)[C@H](Cc2ccc(O)cc2)NC(=O)[C@H](CC(N)=O)NC(=O)[C@H](CO)NC(=O)[C@@H](NC(=O)[C@@H]2CCCN2C(=O)[C@H](CC(N)=O)NC(=O)[C@H](Cc2ccc(O)cc2)NC(=O)[C@H](CCCCN)NC(=O)[C@H](CO)NC(=O)[C@H](C)NC(=O)[C@@H](N)CC(N)=O)CSC1=O` [Se AIP-II, N-A-S-K-Y-N-P-(C-S-N-Y-L), reference compound] (H-NASKYNPCSNYL; thioester 8-C), for which, under “read-out: Max Activation”, the Emax worked out at 8.45%.

Regarding `CC(C)[C@H](NC(=O)[C@H](CO)NC(=O)[C@@H](N)CC(=O)O)C(=O)N[C@H]1CSC(=O)[C@H](Cc2ccccc2)NC(=O)[C@H](Cc2ccc(O)cc2)NC(=O)[C@H](CO)NC(=O)[C@H](C)NC1=O` [Se AIP-I, D-S-V-(C-A-S-Y-F), reference compound] (H-DSVCASYF; thioester 4-C), the Emax (read-out: Max Activation) turned out to be 8.65%.

As for `CC(C)[C@H](NC(=O)[C@H](CO)NC(=O)[C@H](C)N)C(=O)N[C@H]1CSC(=O)[C@H](Cc2ccccc2)NC(=O)[C@H](Cc2ccc(O)cc2)NC(=O)[C@H](C)NC(=O)[C@H](C)NC1=O` [Se AIP-I D1AS6A, A-S-V-(C-A-A-Y-F), reference compound] (H-ASVCAAYF; thioester 4-C), the Emax (read-out: Max Activation) came to 12.4%.

For the molecule `CSCC[C@@H]1NC(=O)[C@H](CO)NC(=O)[C@@H](NC(=O)[C@H](C)N)CSC(=O)[C@H](C(C)C)NC(=O)[C@H](Cc2ccccc2)NC1=O` [Lm AIP F3S, A-(C-S-M-F-V)] (H-ACSMFV; thioester 2-C; N-terminus assumed), for the setting “read-out: Max Activation”, the Emax stood at 16.1%.

In the case of `CSCC[C@@H]1NC(=O)[C@H](Cc2c[nH]cn2)NC(=O)[C@@H](NC(=O)[C@H](C)N)CSC(=O)[C@H](C(C)C)NC(=O)[C@H](Cc2ccccc2)NC1=O` [AIP F3H, A-(C-H-M-F-V)] (H-ACHMFV; thioester 2-C; N-terminus assumed), under setting [1], the Emax was 12.4%.

With `CC[C@H](C)[C@@H]1NC(=O)[C@H](Cc2ccccc2)NC(=O)[C@H](Cc2ccc(O)cc2)NC(=O)[C@@H](NC(=O)[C@@H](NC(=O)[C@H](CO)NC(=O)[C@@H](N)Cc2ccc(O)cc2)[C@@H](C)O)CSC(=O)[C@H](CCSC)NC1=O` [Sa AIP-IV, Y-S-T-(C-Y-F-I-M), reference compound] (H-YSTCYFIM; thioester 4-C), where the note is “10 μM, wild-type reporter or ΔagrD reporter”, the “agonism or antagonism activity compared to vehicle (FIG. 1B)” value is “minimal efficacy”. For the same molecule, the Emax (read-out: Max Activation) is 9.81%.

Take `CC(=O)N[C@H]1CSC(=O)[C@H](C(C)C)NC(=O)[C@H](Cc2ccccc2)NC(=O)CNC(=O)[C@H](C(C)C)NC1=O` [L. grandensis tr AIP, Ac-(C-V-G-F-V), reference compound] (Ac-CVGFV; thioester 1-C): the Emax (read-out: Max Activation) was determined as 10.1%.

As to `CC(C)C[C@@H]1NC(=O)[C@H](Cc2ccc(O)cc2)NC(=O)[C@H](CO)NC(=O)[C@H](C)NC(=O)[C@@H](NC(=O)[C@@H]2CCCN2C(=O)[C@H](CC(N)=O)NC(=O)[C@H](Cc2ccc(O)cc2)NC(=O)[C@H](CCCCN)NC(=O)[C@H](C)NC(=O)[C@H](C)NC(=O)[C@@H](N)CC(N)=O)CSC1=O` [Se AIP-III, N-A-A-K-Y-N-P-(C-A-S-Y-L), reference compound] (H-NAAKYNPCASYL; thioester 8-C), the Emax (read-out: Max Activation) came out at 8.73%.
